Results reported in patent US9556237B2 (priority 2012, dated 2017).

What was measured:
[1] = test system: Vero E6 cells
[2] = test system: RVFV-MP12; format: cell-based, Rift Valley fever virus
[3] = test system: EBOV-eGFP; format: cell-based, Zaire ebolavirus

## CSCC[C@H](NC(=O)[C@H](CC(C)C)NC(=O)CNC(=O)[C@H](CO)NC(=O)[C@H](Cc1ccccc1)NC(=O)[C@H](Cc1c[nH]c2ccccc12)NC(=O)[C@H](CC(=O)O)NC(=O)[C@H](Cc1ccccc1)NC(=O)[C@H](Cc1ccccc1)NC(=O)[C@H](CC(N)=O)NC(=O)[C@@H](N)Cc1c[nH]c2ccccc12)C(=O)N[C@@H](CO)C(=O)N[C@@H](Cc1c[nH]c2ccccc12)C(=O)N[C@@H](Cc1ccccc1)C(=O)NCC(=O)NCC(=O)N1CCC[C@H]1C(=O)N[C@@H](CC(C)C)C(=O)N[C@@H](CCCCN)C(=O)O [RVFV-6, WNFFDWFSGLMSWFGGPLK]
[1]
  impact on cell proliferation (MTT assay): little negative impact on cell proliferation

## FVGAAVSCDAAFLNLTGCY [RVFV-4]
[2]
  inhibition of RVFV-MP12 (plaque reduction), in words: Only RVFV-5 demonstrated any inhibition

## LGASSSRFTNWGSVSLSLD [RVFV-3]
[2]
  inhibition of RVFV-MP12 (plaque reduction), in words: Only RVFV-5 demonstrated any inhibition

## SGSWNFFDWFSGLMSWFGGPL [RVFV-10]
[3]
  inhibition of EBOV (GFP signal): strongly inhibit

## WGCGCFNVNPSCLFVHTYL [RVFV-2]
[2]
  inhibition of RVFV-MP12 (plaque reduction), in words: Only RVFV-5 demonstrated any inhibition

## YWTGSISPKCLSSRRCHLV [RVFV-1]
[2]
  inhibition of RVFV-MP12 (plaque reduction), in words: Only RVFV-5 demonstrated any inhibition
